From US8729102B2, “Bicyclic compound” (Takeda Pharmaceutical Company Limited, priority 2010, dated 2014)

molecular target: T1, Human ACC2 (ACC2 (Nd), N terminal deleted) (Homo sapiens, UniProt O00763); assay: Measurement of ACC2 inhibitory activity (malachite green, recombinant ACC2 (Nd)); assay type: biochemical; conditions: 10 μM test compound; 20 min preincubation at 30° C., 20 min reaction; 10 µM
T1 construct: made in house; host or cells: SF-9 insect cells (baculovirus)
Protocol: The ACC2 inhibitory action of the compound of the present invention was evaluated by the following method.
(1) Cloning of Human ACC2 Gene and Preparation of Recombinant Baculovirus
Human ACC2 gene was cloned by PCR using a human skeletal muscle cDNA library (Clontech) as a template and Primer 1 and Primer 2 shown below. Primer 1 and Primer 2 were prepared by adding SalI, XbaI restriction enzyme recognition sequences based on the information of the base sequence of human ACC2 gene (Genbank Accession U89344).
(§1) PCR was performed using Pyrobest DNA polymerase (TAKARA BIO INC.). The obtained PCR product was cloned to pT7 Blue vector (Novagen) and after confirmation of the base sequence, digested with restriction enzymes SalI and XbaI. The obtained DNA fragment was inserted into pFAST-BacHTa (Invitrogen) digested with restriction enzymes Sail and XbaI to give expression plasmid ACC2/pFAST-BacHTa.
A plasmid for expression of ACC2 without a mitochondrial targeting sequence was prepared by PCR using the expression plasmid as a template, and Primer 3 (salI restriction enzyme recognition sequence was added) and Primer 4, which are prepared by reference to the information of human ACC2 gene base sequence (Genbank Accession U89344).
as §1, with “Pyrobest-DNA” for “Pyrobest DNA”, “Aflil.” for “XbaI.”, “ACC2/pFAST-BacHTa” for “pFAST-BacHTa (Invitrogen)”, “SalI” for “Sail”, “AfilI” for “XbaI”, “ACC2mito7/pFAST-BacHTa.” for “ACC2/pFAST-BacHTa.”
Using the expression plasmid ACC2mito7/pFAST-BacHTa and BAC-TO-BAC Baculovirus Expression System (Invitrogen), virus stock BAC-ACC2 of recombinant Baculovirus (N terminal deleted (hereinafter Nd)) was prepared.
(2) Preparation of ACC2 (Nd) Protein
SF-9 cells (Invitrogen) were inoculated to a medium (2 L) for insect cells (Sf-900IISFM medium (Invitrogen) containing 10% fetal bovine serum (Trace), 50 mg/L Gentamicin (Invitrogen), 0.1% Pluronic F-68 (Invitrogen)) at 0.5×10^6 cells/mL, and cultured with shaking in Wave Bioreactor (Wave) at 27° C., 20 rpm, rocking angle 6°, oxygen concentration 30%.
On day 4 of the culture, 3 L of the medium for insect cells was added, the rocking angle was set to 8°, and the cells were further cultured. On day 5 of the culture, 100 mL of recombinant Baculovirus BAC-ACC2 (Nd) was added, 5 L of the medium for insect cells was further added, the rocking angle was set to 11°, and the cells were cultured for 3 days. The culture medium was centrifuged at 1000×g for 10 min to give virus-infected cells. The cells were washed with phosphate buffered saline (Invitrogen) and centrifuged under the same conditions. The obtained cells were cryopreserved at −80° C.
The cryopreserved cells were thawed in ice and suspended in 900 mL of 25 mM HEPES buffer (pH 7.5) containing 10% Glycerol, 0.13 M NaCl, 1 mM EDTA, 25 mM Sodium β-Glycerophosphate and 1 mM Sodium Orthovanadate, and supplemented with Complete Protease Inhibitor (Nippon Boehringer Ingelheim Co., Ltd.). The obtained suspension was homogenized three times in a polytron homogenizer (Kinematica) at 20,000 rpm for 30 sec. The obtained cell disruption solution was clarified by centrifugation at 31000×g for 60 min, and filtered through a 0.45 μm filter. The filtrate was passed through a column packed with 60 mL of Ni-NTA Super Flow Gel (QUIAGEN) at a flow rate of about 5 mL/min. The column was washed with buffer A (50 mM HEPES (pH 7.5) containing 0.3 M NaCl), further washed with buffer A containing 20 mM Imidazole, and eluted with buffer A containing 100 mM Imidazole. The eluate was concentrated with Vivaspin 20 (Vivascience) with a molecular weight cut off of 30K. The obtained concentrate was dialyzed against 50 mM HEPES (pH 7.5) containing 10 mM MgCl2, 2 mM Dithiothreitol, 10 mM Tripotassium Citrate and 0.3 M NaCl. […]

T1 sequence (O00763 117-2458 limits assumed, stated change not applied): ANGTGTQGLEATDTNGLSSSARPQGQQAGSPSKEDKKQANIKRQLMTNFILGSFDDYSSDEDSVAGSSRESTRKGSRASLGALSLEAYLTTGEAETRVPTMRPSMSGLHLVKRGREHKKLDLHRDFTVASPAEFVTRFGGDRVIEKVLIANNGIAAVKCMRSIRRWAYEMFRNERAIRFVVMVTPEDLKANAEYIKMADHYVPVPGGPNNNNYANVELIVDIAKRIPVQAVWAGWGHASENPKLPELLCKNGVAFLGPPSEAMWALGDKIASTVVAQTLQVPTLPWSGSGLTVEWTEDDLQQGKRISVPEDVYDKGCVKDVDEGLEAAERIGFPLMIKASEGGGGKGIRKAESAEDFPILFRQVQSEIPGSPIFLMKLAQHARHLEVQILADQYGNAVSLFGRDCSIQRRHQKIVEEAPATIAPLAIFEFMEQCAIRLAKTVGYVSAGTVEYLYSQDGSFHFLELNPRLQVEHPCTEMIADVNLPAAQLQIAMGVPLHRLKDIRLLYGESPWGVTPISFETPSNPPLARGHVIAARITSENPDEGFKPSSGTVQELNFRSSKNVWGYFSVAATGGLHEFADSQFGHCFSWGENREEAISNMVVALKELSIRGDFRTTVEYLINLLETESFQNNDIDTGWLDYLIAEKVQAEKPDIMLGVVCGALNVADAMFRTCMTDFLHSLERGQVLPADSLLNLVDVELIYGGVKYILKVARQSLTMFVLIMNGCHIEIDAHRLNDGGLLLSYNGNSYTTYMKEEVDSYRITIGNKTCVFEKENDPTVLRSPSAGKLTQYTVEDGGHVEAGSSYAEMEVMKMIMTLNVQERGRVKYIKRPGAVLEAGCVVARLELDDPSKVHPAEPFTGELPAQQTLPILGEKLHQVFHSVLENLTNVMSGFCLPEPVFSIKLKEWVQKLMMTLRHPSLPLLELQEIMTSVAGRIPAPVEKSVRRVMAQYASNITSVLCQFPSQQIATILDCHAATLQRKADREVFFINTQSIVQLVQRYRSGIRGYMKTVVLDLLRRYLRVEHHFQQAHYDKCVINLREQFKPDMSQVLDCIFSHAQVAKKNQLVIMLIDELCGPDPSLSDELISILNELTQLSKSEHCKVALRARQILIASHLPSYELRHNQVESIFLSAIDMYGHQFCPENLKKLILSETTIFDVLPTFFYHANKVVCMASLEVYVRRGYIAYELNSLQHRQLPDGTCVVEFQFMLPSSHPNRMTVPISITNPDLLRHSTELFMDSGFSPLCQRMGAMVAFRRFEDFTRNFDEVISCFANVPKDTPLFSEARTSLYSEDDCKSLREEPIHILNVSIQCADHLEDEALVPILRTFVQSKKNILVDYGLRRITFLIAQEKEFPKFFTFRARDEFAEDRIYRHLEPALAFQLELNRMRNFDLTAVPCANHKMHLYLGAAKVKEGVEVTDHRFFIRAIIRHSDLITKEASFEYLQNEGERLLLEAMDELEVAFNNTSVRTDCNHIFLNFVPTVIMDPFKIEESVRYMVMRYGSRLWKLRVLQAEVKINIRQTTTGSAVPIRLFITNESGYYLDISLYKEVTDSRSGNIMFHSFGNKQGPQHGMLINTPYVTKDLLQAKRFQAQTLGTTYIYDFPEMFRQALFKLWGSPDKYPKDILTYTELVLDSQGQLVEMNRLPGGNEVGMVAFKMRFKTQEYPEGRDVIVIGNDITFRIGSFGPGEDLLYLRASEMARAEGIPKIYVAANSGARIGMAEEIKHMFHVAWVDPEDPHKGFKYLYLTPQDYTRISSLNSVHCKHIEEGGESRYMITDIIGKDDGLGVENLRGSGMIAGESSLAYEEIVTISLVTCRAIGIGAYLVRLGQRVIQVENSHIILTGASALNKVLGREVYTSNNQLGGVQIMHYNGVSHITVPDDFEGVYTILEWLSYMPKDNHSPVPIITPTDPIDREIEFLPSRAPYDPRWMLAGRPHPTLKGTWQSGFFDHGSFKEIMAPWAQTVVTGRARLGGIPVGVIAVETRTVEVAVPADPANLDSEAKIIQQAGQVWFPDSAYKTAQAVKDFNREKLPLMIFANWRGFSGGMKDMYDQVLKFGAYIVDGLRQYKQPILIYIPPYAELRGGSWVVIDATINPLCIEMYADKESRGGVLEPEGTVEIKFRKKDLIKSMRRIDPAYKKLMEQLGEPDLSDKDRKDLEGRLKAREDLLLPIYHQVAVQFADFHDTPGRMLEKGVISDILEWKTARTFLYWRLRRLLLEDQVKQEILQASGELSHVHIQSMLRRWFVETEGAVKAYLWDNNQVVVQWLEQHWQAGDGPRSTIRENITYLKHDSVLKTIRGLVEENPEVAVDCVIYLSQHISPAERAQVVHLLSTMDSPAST

Compound | ACC2 inhibitory rate at 10 μM (%)
CC(=O)N[C@@H](C)COc1cnc(-c2nc3ccc(OCC4CC4(F)F)cc3o2)c(F)c1 (stereo partly drawn) [Example 110, Diastereomer of N-{(1S)-2-[(6-{6-[(2,2-difluorocyclopropyl)methoxy]-1,3-benzoxazol-2-yl}-5-fluoropyridin-3-yl)oxy]-1-methylethyl}acetamide (retention time: long)] | 91
C[C@@H](COc1cnc(-c2nc3ccc(OCC4CC4(F)F)cc3o2)c(F)c1)NC(N)=O (stereo partly drawn) [Example 111, Diastereomer of 1-{(1S)-2-[(6-{6-[(2,2-difluorocyclopropyl)methoxy]-1,3-benzoxazol-2-yl}-5-fluoropyridin-3-yl)oxy]-1-methylethyl}urea (retention time: short)] | 100

same assay, conditions: 10 μM test compound; 20 min preincubation at 30° C., 20 min reaction; read-out: ACC2 inhibitory rate at 10 μM (%)

Compound | inhibition at 10 µM [%]
CC(=O)N[C@@H](C)COc1ccc(-c2nc3ccc(OCC4CC4)cc3o2)cc1 [Example 3, N-[(1S)-2-{4-[6-(cyclopropylmethoxy)-1,3-benzoxazol-2-yl]phenoxy}-1-methylethyl]acetamide] | 99
CC(=O)N[C@@H](C)COc1n[nH]c(-c2nc3ccc(OCC4CC4)cc3o2)c1F [Example 9, N-[(1S)-2-({5-[6-(cyclopropylmethoxy)-1,3-benzoxazol-2-yl]-4-fluoro-1H-pyrazol-3-yl}oxy)-1-methylethyl]acetamide] | 98
CC(=O)N[C@@H](C)COc1ccc(-n2cc3cc(OCC4CC4)ccc3n2)cc1 [Example 12, N-[(1S)-2-{4-[5-(cyclopropylmethoxy)-2H-indazol-2-yl]phenoxy}-1-methylethyl]acetamide] | 103
CC(=O)N[C@@H](C)COc1ccc(-n2cc3ccc(OCC4CC4)cc3n2)cc1 [Example 13, N-[(1S)-2-{4-[6-(cyclopropylmethoxy)-2H-indazol-2-yl]phenoxy}-1-methylethyl]acetamide] | 94
C[C@@H](COc1ccc(-c2nc3ccc(OCC4CC4)cc3o2)nc1)NC(N)=O [Example 15, 1-[(1S)-2-({6-[6-(cyclopropylmethoxy)-1,3-benzoxazol-2-yl]pyridin-3-yl}oxy)-1-methylethyl]urea] | 92
CNC(=O)N[C@@H](C)COc1ccc(-c2nc3ccc(OCC4CC4)cc3o2)nc1 [Example 16, 1-[(1S)-2-({6-[6-(cyclopropylmethoxy)-1,3-benzoxazol-2-yl]pyridin-3-yl}oxy)-1-methylethyl]-3-methylurea] | 93
COC(=O)N[C@@H](C)COc1ccc(-c2nc3ccc(OCC4CC4)cc3o2)nc1 [Example 17, methyl [(1S)-2-({6-[6-(cyclopropylmethoxy)-1,3-benzoxazol-2-yl]pyridin-3-yl}oxy)-1-methylethyl]carbamate] | 90
CC(=O)N[C@@H](C)COc1ccc(C2Cc3ccc(OCC4CC4)cc3O2)nc1 (stereo partly drawn) [Example 24, N-[(1S)-2-({6-[6-(cyclopropylmethoxy)-2,3-dihydro-1-benzofuran-2-yl]pyridin-3-yl}oxy)-1-methylethyl]acetamide] | 90
CCOc1ccc2cn(-c3ccc(OC[C@H](C)NC(C)=O)cc3F)nc2c1 [Example 25, N-{(1S)-2-[4-(6-ethoxy-2H-indazol-2-yl)-3-fluorophenoxy]-1-methylethyl}acetamide monohydrate] | 90
CCOc1ccc2cn(-c3ccc(OC[C@H](C)NC(C)=O)cc3)nc2c1 [Example 26, N-{(1S)-2-[4-(6-ethoxy-2H-indazol-2-yl)phenoxy]-1-methylethyl}acetamide] | 95
CC(=O)N[C@@H](C)COc1ccc(-c2nc3ccc(OCC(C)(F)F)cc3o2)nc1 [Example 30] | 100
CC(=O)N[C@@H](C)COc1cc(-c2nc3cc(OC(C)C)ccc3o2)on1 [Example 33, N-[(1S)-1-methyl-2-({5-[5-(1-methylethoxy)-1,3-benzoxazol-2-yl]isoxazol-3-yl}oxy)ethyl]acetamide] | 85
C[C@@H](COc1ccc(-n2cc3ccc(OCC4CC4)cc3n2)cc1)NC(=O)N(C)C [Example 63, 3-[(1S)-2-{4-[6-(cyclopropylmethoxy)-2H-indazol-2-yl]phenoxy}-1-methylethyl]-1,1-dimethylurea] | 93
CC(=O)N[C@@H](C)COc1cc(F)c(-n2cc3ccc(OCC4CC4)cc3n2)cc1F [Example 70, N-[(1S)-2-{4-[6-(cyclopropylmethoxy)-2H-indazol-2-yl]-2,5-difluorophenoxy}-1-methylethyl]acetamide] | 93
CC(=O)N[C@@H](C)COc1ccc(-n2nc3cc(OCC4CC4)ccc3c2F)cc1 [Example 73, N-[(1S)-2-{4-[6-(cyclopropylmethoxy)-3-fluoro-2H-indazol-2-yl]phenoxy}-1-methylethyl]acetamide] | 99
CCOc1ccc2cc(-c3ccc(OC[C@H](C)NC(C)=O)cc3)nn2c1 [Example 85, N-{(1S)-2-[4-(6-ethoxypyrazolo[1,5-a]pyridin-2-yl)phenoxy]-1-methylethyl}acetamide] | 93
CC(=O)N[C@@H](C)COc1ccc(-c2nc3ccc(OCC4CC4)cn3n2)cc1 [Example 89, N-[(1S)-2-{4-[6-(cyclopropylmethoxy)[1,2,4]triazolo[1,5-a]pyridin-2-yl]phenoxy}-1-methylethyl]acetamide] | 94
CC(=O)N[C@@H](C)COc1ccc(-c2nc3ccc(OCC4CC4)cn3c2F)cc1 [Example 92, N-[(1S)-2-{4-[6-(cyclopropylmethoxy)-3-fluoroimidazo[1,2-a]pyridin-2-yl]phenoxy}-1-methylethyl]acetamide] | 93
CC(=O)N[C@@H](C)COc1ccc(-c2nc3cc(OCC4CC4)ccn3n2)cc1 [Example 95, N-[(1S)-2-{4-[7-(cyclopropylmethoxy) [1,2,4]triazolo[1,5-a]pyridin-2-yl]phenoxy}-1-methylethyl]acetamide] | 94
C[C@@H](COc1cnc(-c2nc3ccc(OCC4CC4(F)F)cc3o2)c(F)c1)NC(N)=O (some centres unmarked) [Example 97] | 95
CCOc1ccc2c(F)c(-c3ccc(OC[C@H](C)NC(C)=O)cc3F)nn2c1 [Example 100, N-{(1S)-2-[4-(6-ethoxy-3-fluoropyrazolo[1,5-a]pyridin-2-yl)-3-fluorophenoxy]-1-methylethyl}acetamide] | 90
CC(=O)N[C@@H](C)COc1ccc(-c2nn3cc(OCC4CC4)ccc3c2F)c(F)c1 [Example 102, N-[(1S)-2-{4-[6-(cyclopropylmethoxy)-3-fluoropyrazolo[1,5-a]pyridin-2-yl]-3-fluorophenoxy}-1-methylethyl]acetamide] | 99
CC(=O)N[C@@H](C)COc1ccc(-c2cc3ccc(OCC4CC4)cn3n2)c(F)c1 [Example 104, N-[(1S)-2-{4-[6-(cyclopropylmethoxy)pyrazolo[1,5-a]pyridin-2-yl]-3-fluorophenoxy}-1-methylethyl]acetamide] | 102
CC(=O)N[C@@H](C)COc1cnc(-c2nc3ccc(OCC4CC4(F)F)cc3o2)c(F)c1 (stereo partly drawn) [Example 109, Diastereomer of N-{(1S)-2-[(6-{6-[(2,2-difluorocyclopropyl)methoxy]-1,3-benzoxazol-2-yl}-5-fluoropyridin-3-yl)oxy]-1-methylethyl}acetamide (retention time: short)] | 95
